The text below walks through data of article PMC3532118, “A Novel Muscarinic Antagonist R2HBJJ Inhibits Non-Small Cell Lung Cancer Cell Growth and Arrests the Cell Cycle in G0/G1” (PLoS ONE, 2012).

Where two headings read alike, the source gives them in different places. Some results are limits rather than exact numbers.

For assay [1], the system named is H1299 cells. Description: Exogenous ACh combined with R2HBJJ, cell viability (SRB). How it is done: To determine the correlation between cholinergic signal pathways and R2HBJJ-induced growth inhibition, exogenous AChR agonist ACh was used. The effects of ACh on the growth of H1299 and on R2HBJJ-induced growth inhibition were observed.
Cells were seeded at a density of 6.0×10^3 cells/well in 96-well plates. After overnight incubation, the cells were treated with R2HBJJ (1.6–100 µM) or other antagonists (0.3–100 µM) for 72 h. The inhibitory effects of the antagonists on cell growth were determined using SRB assay, as described previously. For the combination administration, the agonist was added 1 h before R2HBJJ. Each experiment was performed in six replicates and repeated for three times. Cells treated with solvent (DMSO) were used as a control, with viability set at 100%.
(§1) GraphPad Prism 5 software was used for statistical analysis. For competition binding and Guinea-pig tracheal contraction assay, the IC50 values were determined by using the non-linear curve-fitting program. The inhibition constants (Ki values) were calculated by using the Cheng-Prusoff equation. For the experiments of exogenous ACh combined with R2HBJJ, two-way ANOVA was used to compare the interaction of two treatment factors. Post-hoc analyses were performed with Bonferroni's tests for comparisons to controls. For the cell viability assay after siRNA transfection, one-way ANOVA followed by Dunnett's t test was used. A P value of less than 0.05 was considered statistically significant.

The test system of assay [2] is H1299 cells. Description: Cell viability assay (SRB), H1299. The format is cell-based, human.
Description: (§3) Cells were seeded at a density of 6.0×10^3 cells/well in 96-well plates. […] The inhibitory effects of the antagonists on cell growth were determined using SRB assay, as described previously [37]. […] Each experiment was performed in six replicates and repeated for three times. Cells treated with solvent (DMSO) were used as a control, with viability set at 100%.
Assay [3] concerns the target human muscarinic receptor M1 (Homo sapiens, UniProt P11229). Description: biochemical. How it is done:
(§2) Bound radioligand was separated from free by rapid vacuum filtration through GF/C glass fiber filters (Whatman). The filters were rinsed three times with ice cold PBS. After being dried, the fibers were placed in scintillation vials with 0.5 ml of BetaPlate Scint. Radioactivity trapped on the filters was quantified by a BECKMAN Beta counter. The assay was repeated three times with duplicate samples.
as §1

The target in assay [4] is human muscarinic receptor M3 (Homo sapiens, UniProt P20309). The assay is described as follows: biochemical. How it is done:
as §2, §1

Assay [5] deals with T1, human muscarinic receptor M2 (Homo sapiens, UniProt P08172).
T1 construct: purchased Perkin Elmer Life and Analytical Sciences
T1 sequence (P08172 whole entry): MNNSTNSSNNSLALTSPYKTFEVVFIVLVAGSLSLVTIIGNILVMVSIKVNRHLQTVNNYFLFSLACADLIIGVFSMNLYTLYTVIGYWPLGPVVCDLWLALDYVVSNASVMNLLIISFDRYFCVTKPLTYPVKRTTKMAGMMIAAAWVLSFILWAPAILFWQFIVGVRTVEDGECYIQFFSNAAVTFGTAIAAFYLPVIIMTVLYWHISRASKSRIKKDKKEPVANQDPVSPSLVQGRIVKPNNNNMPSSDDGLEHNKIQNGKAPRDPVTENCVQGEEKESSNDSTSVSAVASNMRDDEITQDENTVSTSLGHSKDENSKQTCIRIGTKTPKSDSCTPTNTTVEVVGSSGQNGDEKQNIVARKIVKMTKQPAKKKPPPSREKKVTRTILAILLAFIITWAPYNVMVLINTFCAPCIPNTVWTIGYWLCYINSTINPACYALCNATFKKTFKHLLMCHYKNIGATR
The assay is described as follows: Radioligand binding assay with [3H]NMS (saturation and competition), M2. The settings on record: mean ± SD. How it is done: as §2, §1

The target of assay [6] is T2, human muscarinic receptor M4 (Homo sapiens, UniProt P08173).
T2 construct: purchased Perkin Elmer Life and Analytical Sciences
T2 sequence (P08173 whole entry): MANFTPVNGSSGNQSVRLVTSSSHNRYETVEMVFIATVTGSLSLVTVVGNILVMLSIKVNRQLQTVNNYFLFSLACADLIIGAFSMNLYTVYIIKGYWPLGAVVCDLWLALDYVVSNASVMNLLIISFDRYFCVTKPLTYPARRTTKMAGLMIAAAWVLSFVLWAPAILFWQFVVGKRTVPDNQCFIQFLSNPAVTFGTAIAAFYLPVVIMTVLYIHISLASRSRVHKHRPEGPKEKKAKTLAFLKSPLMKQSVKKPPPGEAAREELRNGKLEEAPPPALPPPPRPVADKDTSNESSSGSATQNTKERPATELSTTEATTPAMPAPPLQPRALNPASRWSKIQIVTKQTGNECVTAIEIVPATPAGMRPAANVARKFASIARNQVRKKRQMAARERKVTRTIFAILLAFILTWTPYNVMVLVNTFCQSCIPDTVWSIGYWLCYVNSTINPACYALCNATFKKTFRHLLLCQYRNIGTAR
The assay is described as follows: biochemical. The format is binding. Particulars: mean ± SD. How it is done: as §2
as §1, with “used.” for “used. A P value of less than 0.05 was considered statistically significant.”

Assay [7] addresses T3, human muscarinic receptor M5 (Homo sapiens, UniProt P08912).
T3 construct: purchased Perkin Elmer Life and Analytical Sciences
Description: Radioligand binding assay with [3H]NMS (saturation and competition), M5. Particulars: mean ± SD. How it is done: as §2, §1

Assay [8] has as its system H460 cells. Description: Cell viability assay (SRB), H460. The format is cell-based. The settings on record: Homo sapiens, NCI-H460, read-out: 50% growth-inhibitory concentration (GI50), H460, 72 h.
Description: as §3
Assay [9] deals with H157 cells. The assay is described as follows: Cell viability assay (SRB), H157. The format is cell-based. The settings on record: Homo sapiens, NCI-H157, read-out: 50% growth-inhibitory concentration (GI50), H157, 72 h.
Description: as §3
Assay [10] concerns A549 cells. The assay is described as follows: Cell viability assay (SRB), A549. It counts as cell-based. The settings on record: Homo sapiens, read-out: 50% growth-inhibitory concentration (GI50), A549, 72 h, 100 µM highest concentration tested.
Description: as §3
In assay [11] the test system is BEP2D cells. Description: Cell viability assay (SRB), BEP2D. It counts as cell-based. Particulars: Homo sapiens, read-out: 50% growth-inhibitory concentration (GI50), 72 h, 100 µM highest concentration tested.
Description: as §3
The test system of assay [12] is H1299 cells. The assay is described as follows: cells. How it is done:
as §1

Assay [13] concerns H1299 cells. The assay is described as follows: Cell cycle analysis by flow cytometry, H1299. It counts as cell-based, human. The settings on record: H1299, 20 µM. How it is done: Alterations in cell cycle were determined by using flow cytometric assay. Cells were seeded at a density of 1×10^5 cells/well in six-well plates and synchronized by plating in RPMI-1640 containing 1% FBS for 24 h. For time-dependent response, cells were incubated in 2 ml fresh RPMI-1640 containing 10% FBS with 20 µM R2HBJJ for 24, 48, 72 h. For concentration-dependent response, cells were incubated for 48 h with R2HBJJ at final concentrations of 2.5, 5, 10, 15, 20 µM in 2 ml fresh RPMI-1640 containing 10% FBS. Fresh media added in the control well simultaneously. After treatment, the cells were harvested with trypsin, washed once with PBS, and then fixed in 70% ethanol overnight at 4°C. Before flow cytometry analysis, cells were stained with 200 µg/ml Ribonuclease A and 50 µg/ml propidium iodide (Sigma) for 30 min at room temperature away from light. 1×10^4 cells per sample were analyzed using a FACSCalibur flow cytometer (BD Biosciences). Data were evaluated using Modfit software.
In general terms: In flow cytometry, cells or beads pass a laser one at a time.

Assay [14] concerns cyclin D1-CDK4/6-Rb in H1299 cells. Description: Western blot of cell cycle regulatory proteins and Rb phosphorylation. The format is cell-based, human. How it is done:
Cell cycle transition from G1 to S is mainly activated by two different kinase composites: cyclin D1/CDK4, 6, and cyclin E, A/CDK2. Rb is the primary substrate of cyclin D-dependent kinase and plays a key role in the network of cell cycle regulation. To investigate the underlying molecular mechanisms of G0/G1 arrest induced by R2HBJJ, the time-dependent changes of several related cell cycle regulatory molecules were evaluated after treatment with 20 µM R2HBJJ in H1299 cells by using western blot analysis. […] The decrease of Rb phosphorylated at the position of Ser^807/811 occurred as early as 3 h after treatment and before apparent cell viability change. […] Further we evaluated the concentration response of Rb phosphorylation reduced after treatment with R2HBJJ for 48 h (Fig. 8B).
Cells were harvested and subjected to lysis in the buffer X (50 mM Tris, 270 mM NaCl, 1% Triton X-100, pH 7.4). Equal amounts of lysates (30 µg) were separated on 10% SDS-PAGE and then transferred to polyvinylidene difluoride membranes (Millipore). Membranes were then blocked with PBS buffer containing 5% low fat milk and 0.1% Tween 20 (PBST) for 1 h at room temperature and then incubated with primary antibodies (1∶1000–2000) overnight at 4°C. After being washed three times with PBST, membranes were incubated with peroxidase-conjugated secondary antibodies (1∶5000) for 1 h at room temperature. The membranes were washed with PBST again and developed with a pro-light HRP chemiluminescence detection kit (TianGen Biotech, China). β-actin was used as a loading control.
Background: In western blotting, separated proteins are transferred to a membrane and probed.

[15] abbreviates: Homo sapiens, NCI-H1299, 72 h, read-out: cell viability.
Setting [16] is: H1299, 72 h, SRB, antagonists 0.3–100 µM, no exogenous agonist.
The mark [17] stands for this setting: 2.4 nM [3H]NMS, n = 3, read-out: IC50 inhibiting [3H]NMS binding.
[18] abbreviates: Cheng-Prusoff, n = 3, read-out: Ki inhibiting [3H]NMS binding.

Chain of human muscarinic receptor M1 (P11229 whole entry): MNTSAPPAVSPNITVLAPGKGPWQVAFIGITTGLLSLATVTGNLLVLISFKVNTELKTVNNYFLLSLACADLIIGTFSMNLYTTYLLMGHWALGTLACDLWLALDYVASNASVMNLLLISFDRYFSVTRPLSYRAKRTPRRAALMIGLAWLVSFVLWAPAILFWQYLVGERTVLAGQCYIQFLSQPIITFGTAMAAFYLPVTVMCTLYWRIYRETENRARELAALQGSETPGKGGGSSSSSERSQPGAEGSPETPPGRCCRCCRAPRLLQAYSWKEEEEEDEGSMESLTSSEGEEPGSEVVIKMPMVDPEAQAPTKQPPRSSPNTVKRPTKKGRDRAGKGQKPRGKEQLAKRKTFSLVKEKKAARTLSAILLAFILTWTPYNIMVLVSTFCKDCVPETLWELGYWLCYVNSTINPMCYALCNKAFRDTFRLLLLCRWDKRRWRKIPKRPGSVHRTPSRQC
Chain of human muscarinic receptor M3 (P20309 whole entry): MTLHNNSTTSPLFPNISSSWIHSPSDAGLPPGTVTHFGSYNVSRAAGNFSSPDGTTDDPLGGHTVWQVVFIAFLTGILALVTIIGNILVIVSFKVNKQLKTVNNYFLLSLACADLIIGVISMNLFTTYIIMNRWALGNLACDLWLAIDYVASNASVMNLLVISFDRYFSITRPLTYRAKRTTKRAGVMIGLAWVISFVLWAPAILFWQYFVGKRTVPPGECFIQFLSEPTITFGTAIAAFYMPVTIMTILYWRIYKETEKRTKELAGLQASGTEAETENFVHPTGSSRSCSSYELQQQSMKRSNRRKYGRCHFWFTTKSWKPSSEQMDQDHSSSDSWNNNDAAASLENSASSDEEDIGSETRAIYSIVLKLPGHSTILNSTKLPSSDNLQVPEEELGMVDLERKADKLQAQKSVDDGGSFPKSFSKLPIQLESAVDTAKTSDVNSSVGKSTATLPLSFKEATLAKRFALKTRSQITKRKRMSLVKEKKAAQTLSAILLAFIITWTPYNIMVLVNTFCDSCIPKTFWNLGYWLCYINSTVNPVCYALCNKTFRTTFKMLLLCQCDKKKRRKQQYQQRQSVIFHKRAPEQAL
T3 sequence (P08912 whole entry): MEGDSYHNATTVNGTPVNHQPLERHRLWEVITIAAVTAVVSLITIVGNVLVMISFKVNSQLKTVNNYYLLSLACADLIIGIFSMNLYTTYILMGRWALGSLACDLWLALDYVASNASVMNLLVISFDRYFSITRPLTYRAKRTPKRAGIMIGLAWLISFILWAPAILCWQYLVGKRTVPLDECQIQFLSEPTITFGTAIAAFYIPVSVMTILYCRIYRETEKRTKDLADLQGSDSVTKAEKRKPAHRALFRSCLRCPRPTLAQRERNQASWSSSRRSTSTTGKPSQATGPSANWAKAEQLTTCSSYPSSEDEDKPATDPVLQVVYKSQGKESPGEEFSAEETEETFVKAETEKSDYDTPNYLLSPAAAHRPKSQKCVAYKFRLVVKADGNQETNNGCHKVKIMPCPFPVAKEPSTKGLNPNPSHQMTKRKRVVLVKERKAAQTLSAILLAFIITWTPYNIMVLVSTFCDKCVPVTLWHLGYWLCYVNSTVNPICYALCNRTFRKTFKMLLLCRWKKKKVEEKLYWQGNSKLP

As for `CC(=O)OCC[N+](C)(C)C` [ACh, Acetylcholine, reference compound], the “effect of exogenous ACh alone on H1299 cell growth” value in [1] (ACh 1, 10 and 100 µM, 72 h) is recorded as “no significant effects on H1299 cell growth”. In addition, in assay [1] (setting [15]), the viability at 1 µM came out at 102 ± 1.8%, the viability at 10 µM worked out at 105 ± 2.74% and the viability at 100 µM came out at 99 ± 2.72%.

On to `CCN(CC)CC1CCCCN1CC(=O)N1c2ccccc2C(=O)Nc2cccnc21` (stereo not drawn) [AF-DX116], for which the “effect on H1299 cell proliferation” value in assay [2] (setting [16]) is recorded as “inhibition on cell proliferation at the highest concentration tested”.

For the molecule `Br.CO[C@H]1CC=C2CCN3CCC4=C(CC(=O)OC4)[C@]23C1` [DhβE, Dihydro-β-erythroidine hydrobromide], the “effect on H1299 cell proliferation” value in [2] (setting [16]) was “no obvious effects on cell proliferation”.

Regarding `O[C@@](CO[C@H]1CN2CCC1CC2)(c1ccccc1)C1CCCC1` [R2-PHC], the “inhibitory potency relative to darifenacin” value in assay [2] (H1299, 72 h, SRB) was “about 3.7 fold”. In [2] (setting [16]), the “effect on H1299 cell proliferation” value is “significantly inhibited H1299 cell proliferation in a concentration-dependent manner”.

For the molecule `O[C@@](CO[C@H]1C[N+]2(C3CC3)CCC1CC2)(c1ccccc1)C1CCCC1` [R2HBJJ], the IC50 in assay [3] came to 0.739 nM; in [4] it was 0.38 nM; in assay [5] (setting [17]), 5.33 nM; in assay [6] (setting [17]), 1.47 nM; in [7] (setting [17]) it was 1.61 nM. For the same molecule, the Ki in [3] came to 0.0786 nM; in [4], 0.0679 nM; in assay [5] (setting [18]), 1.33 nM; in [6] (setting [18]), 0.106 nM; in [7] (setting [18]), 0.264 nM. Further, in [2] (H1299, 72 h, SRB), the “inhibitory potency relative to darifenacin” value is “about 3.7 fold”. Moreover, the “effect on H1299 cell proliferation” value in assay [2] (setting [16]) is reported as “significantly inhibited H1299 cell proliferation in a concentration-dependent manner”. Further, the GI50 in assay [2] (Homo sapiens, NCI-H1299, read-out: 50% growth-inhibitory concentration (GI50), H1299, 72 h, SRB) was 8500 nM; in assay [8] it was 8800 nM; in assay [9] it was 28500 nM; in [10], greater than 100000 nM; in assay [11], greater than 100000 nM. Also, the viability at 10 µM was determined as 54.1 ± 3.89% in [1] (Homo sapiens, NCI-H1299, 72 h, read-out: cell viability, R2HBJJ 10 µM, ACh 0 µM, H1299, 72 h); 55 ± 6.79% in assay [1] (Homo sapiens, NCI-H1299, read-out: cell viability, R2HBJJ 10 µM, ACh 1 µM added 1 h before, H1299, 72 h); 82.3 ± 5.82% in assay [1] (Homo sapiens, NCI-H1299, read-out: cell viability, R2HBJJ 10 µM, ACh 10 µM added 1 h before, H1299, 72 h); 91.1 ± 3.65% in assay [1] (Homo sapiens, NCI-H1299, read-out: cell viability, R2HBJJ 10 µM, ACh 100 µM added 1 h before, H1299, 72 h). Moreover, the viability at 20 µM in assay [1] (Homo sapiens, NCI-H1299, 72 h, read-out: cell viability, R2HBJJ 20 µM, ACh 0 µM, H1299, 72 h) stood at 23.2 ± 2.14%; in assay [1] (Homo sapiens, NCI-H1299, read-out: cell viability, R2HBJJ 20 µM, ACh 1 µM added 1 h before, H1299, 72 h), 24.1 ± 1.94%; in [1] (Homo sapiens, NCI-H1299, read-out: cell viability, R2HBJJ 20 µM, ACh 10 µM added 1 h before, H1299, 72 h), 35.6 ± 4.48%; in [1] (Homo sapiens, NCI-H1299, read-out: cell viability, R2HBJJ 20 µM, ACh 100 µM added 1 h before, H1299, 72 h) it was 58.5 ± 2.83%. Further, the viability at 8 µM in [12] (setting [15]) was 83.5%. For the same molecule, in assay [12] (setting [15]), the viability at 16 µM was found to be 57.4%. Besides, the “effect on cell growth after M3 siRNA transfection” value in assay [12] (M3 siRNA treated H1299 cells, R2HBJJ 8 µM and 16 µM, 72 h) was “didn't further influence the cell growth”. The “percentage of G0/G1 phase” value in assay [13] (48 h (Fig. 7B, concentration series), control 39.60%) is listed as 70.01%; in assay [13] (72 h (Fig. 7A), control 40.35%), 76.60%. In addition, in assay [13] (72 h (Fig. 7A), control 46.14%), the “percentage of S phase” value was 15.93%. Moreover, the “levels of cyclin D1, CDK4 and CDK6 proteins” value in assay [14] (H1299, 20 µM, 3–60 h) is recorded as “dramatic down-regulation”. Further, the “levels of cyclin E and CDK2” value in assay [14] (H1299, 20 µM, 3–60 h) is “remained basically unaltered”. For the same molecule, in assay [14] (H1299, 20 µM, 3–60 h), the “phosphorylation of Rb (particularly at Ser807/811)” value is “decreased time-dependently”. Further, in assay [14] (H1299, 48 h, 1.25–20 µM tested), the “lowest concentration at which decrease of Rb phosphorylated at Ser807/811 occurred” value worked out at 1.25 µM.

With `CN1[C@@H]2CC[C@H]1C[C@@H](OC(=O)C(CO)c1ccccc1)C2` (stereo partly drawn) [atropine], the “effect on H1299 cell proliferation” value in assay [2] is given as “no obvious effects on cell proliferation”.

For the molecule `NC(=O)C(c1ccccc1)(c1ccccc1)[C@@H]1CCN(CCc2ccc3c(c2)CCO3)C1` [darifenacin], the “effect on H1299 cell proliferation” value in [2] (setting [16]) was “significantly inhibited H1299 cell proliferation in a concentration-dependent manner”.

Take `CNC1(C)C2CCC(C2)C1(C)C` (stereo not drawn) [mecamylamine]: in assay [2] (setting [16]), the “effect on H1299 cell proliferation” value is “no obvious effects on cell proliferation”.

With `CN1CCN(CC(=O)N2c3ccccc3C(=O)Nc3cccnc32)CC1` [pirenzepine], in [2] (setting [16]), the “effect on H1299 cell proliferation” value was “no obvious effects on cell proliferation”.

Regarding α-bungarotoxin [α-bgt], the “effect on H1299 cell proliferation” value in assay [2] was “no obvious effects on cell proliferation”.

One may read the viability as a read-out of living cells in per cent, often relative to untreated cells. Usually IC50 stands for the concentration that inhibits the measured activity by half. As usually defined, the Ki is a measure of affinity in units of concentration, obtained from inhibition or displacement.
